Laboratory results reported in PubChem BioAssay AID1259407 (Chemical Carcinogenesis Research Information System (CCRIS), 2018).
Calls of active or inactive are those of the source. How the calls were made is not given here.

System: CCRIS mutagenicity, Ames/micronucleus/aberration tests
Assay: CCRIS mutagenicity studies

Measured: mutagenic call

Cc1c2ccccc2c(C)c2c1ccc1ccccc12
active: End Point: IN VITRO CHROMOSOMAL ABERRATIONS, Test System: CHL/IU CELLS, Metabolic Activation: RAT, LIVER, S-9, PHENOBARBITAL AND 5,6-BENZOFLAVONE active; positive (structural changes) | End Point: IN VITRO MICRONUCLEUS, Test System: CHL/IU CELLS, Metabolic Activation: RAT, LIVER, S-9, PHENOBARBITAL AND 5,6-BENZOFLAVONE active; positive | End Point: IN VITRO MICRONUCLEUS, Test System: CHO CELLS, Metabolic Activation: RAT, LIVER, S-9, AROCLOR 1254 active; positive | End Point: IN VITRO MICRONUCLEUS, Test System: V79 CELLS, Metabolic Activation: RAT, LIVER, S-9, AROCLOR 1254 active; positive | End Point: IN VIVO CHROMOSOMAL ABERRATIONS, Test System: MAMMARY GLAND CELLS, USING DUAL PROBE FISH, Species: RAT, Strain/Sex: SPRAGUE-DAWLEY/FEMALE, Route: INTRAGASTRIC active; positive (hyperdiploidy and polyploidy) | End Point: IN VIVO MICRONUCLEUS, Test System: BLOOD ERYTHROCYTES, Species: MOUSE, Strain/Sex: CD-1/MALE, Route: ORAL active; positive | Test System: AMES SALMONELLA TYPHIMURIUM, Strain/Indicator: TA97, Metabolic Activation: NONE, Method: STANDARD PLATE active; positive | Test System: AMES SALMONELLA TYPHIMURIUM, Strain/Indicator: TA97, Metabolic Activation: RAT, LIVER, S-9, PCB, Method: STANDARD PLATE active; positive | Test System: AMES SALMONELLA TYPHIMURIUM, Strain/Indicator: TA98, Metabolic Activation: NONE, Method: SPIRAL ASSAY active; positive | Test System: AMES SALMONELLA TYPHIMURIUM, Strain/Indicator: TA98, Metabolic Activation: RAT, LIVER, S-9, AROCLOR 1254, Method: SPIRAL ASSAY active; positive | Test System: AMES SALMONELLA TYPHIMURIUM, Strain/Indicator: TA98, Metabolic Activation: RAT, LIVER, S-9, AROCLOR 1254, Method: STANDARD PLATE active; positive | Test System: AMES SALMONELLA TYPHIMURIUM, Strain/Indicator: TA98, Metabolic Activation: RAT, LIVER, S-9, PCB, Method: STANDARD PLATE active; positive | Test System: AMES SALMONELLA TYPHIMURIUM, Strain/Indicator: TA98, Method: STANDARD PLATE active; positive | Test System: AMES SALMONELLA TYPHIMURIUM, Strain/Indicator: TA100, Metabolic Activation: MOUSE, LIVER, MICROSOMES, BENZO[E]PYRENE AND TCDD, Method: STANDARD PLATE active; positive | Test System: AMES SALMONELLA TYPHIMURIUM, Strain/Indicator: TA100, Metabolic Activation: NONE, Method: SPIRAL ASSAY active; positive | Test System: AMES SALMONELLA TYPHIMURIUM, Strain/Indicator: TA100, Metabolic Activation: RAT, INTACT HEPATOCYTES, AROCLOR 1254, Method: PREINCUBATION active; positive | Test System: AMES SALMONELLA TYPHIMURIUM, Strain/Indicator: TA100, Metabolic Activation: RAT, LIVER, MICROSOMES, 3-METHYLCHOLANTHRENE, Method: PREINCUBATION active; positive | Test System: AMES SALMONELLA TYPHIMURIUM, Strain/Indicator: TA100, Metabolic Activation: RAT, LIVER, MICROSOMES, SODIUM PHENOBARBITAL, Method: PREINCUBATION active; positive | Test System: AMES SALMONELLA TYPHIMURIUM, Strain/Indicator: TA100, Metabolic Activation: RAT, LIVER, MICROSOMES, SUDAN III, Method: PREINCUBATION active; positive | Test System: AMES SALMONELLA TYPHIMURIUM, Strain/Indicator: TA100, Metabolic Activation: RAT, LIVER, MICROSOMES, Method: PREINCUBATION active; positive | Test System: AMES SALMONELLA TYPHIMURIUM, Strain/Indicator: TA100, Metabolic Activation: RAT, LIVER, S-9, AROCLOR 1254, Method: SPIRAL ASSAY active; positive | Test System: AMES SALMONELLA TYPHIMURIUM, Strain/Indicator: TA100, Metabolic Activation: RAT, LIVER, S-9, AROCLOR 1254, Method: STANDARD PLATE active; positive | Test System: AMES SALMONELLA TYPHIMURIUM, Strain/Indicator: TA100, Metabolic Activation: RAT, LIVER, S-9, EUGENOL, Method: PREINCUBATION active; positive | Test System: AMES SALMONELLA TYPHIMURIUM, Strain/Indicator: TA100, Metabolic Activation: RAT, LIVER, S-9, KC500 OR PHENOBARBITAL, Method: LIQUID SUSPENSION active; positive | Test System: AMES SALMONELLA TYPHIMURIUM, Strain/Indicator: TA100, Metabolic Activation: RAT, LIVER, S-9, PCB, Method: STANDARD PLATE active; positive | Test System: AMES SALMONELLA TYPHIMURIUM, Strain/Indicator: TA100, Metabolic Activation: RAT, LIVER, S-9, PHENOBARBITAL, Method: STANDARD PLATE active; positive | Test System: AMES SALMONELLA TYPHIMURIUM, Strain/Indicator: TA100, Metabolic Activation: RAT, LIVER, S-9, Method: PREINCUBATION active; positive | Test System: AMES SALMONELLA TYPHIMURIUM, Strain/Indicator: TA100, Metabolic Activation: RAT, NADPH-FORTIFIED HOMOGENIZED HEPATOCYTES, AROCLOR 1254, Method: PREINCUBATION active; positive | Test System: AMES SALMONELLA TYPHIMURIUM, Strain/Indicator: TA100, Metabolic Activation: RAT, SONICATED HEPATOCYTES, AROCLOR 1254, Method: PREINCUBATION active; positive | Test System: AMES SALMONELLA TYPHIMURIUM, Strain/Indicator: TA100, Method: STANDARD PLATE active; positive | Test System: AMES SALMONELLA TYPHIMURIUM, Strain/Indicator: TA1537, Metabolic Activation: NONE, Method: SPIRAL ASSAY active; positive | Test System: AMES SALMONELLA TYPHIMURIUM, Strain/Indicator: TA1537, Metabolic Activation: NONE, Method: STANDARD PLATE active; positive | Test System: AMES SALMONELLA TYPHIMURIUM, Strain/Indicator: TA1537, Metabolic Activation: RAT, LIVER, S-9, AROCLOR 1254, Method: SPIRAL ASSAY active; positive | Test System: AMES SALMONELLA TYPHIMURIUM, Strain/Indicator: TA1537, Metabolic Activation: RAT, LIVER, S-9, AROCLOR 1254, Method: STANDARD PLATE active; positive | Test System: AMES SALMONELLA TYPHIMURIUM, Strain/Indicator: TA1537, Metabolic Activation: RAT, LIVER, S-9, KC500 OR PHENOBARBITAL, Method: LIQUID SUSPENSION active; positive | Test System: AMES SALMONELLA TYPHIMURIUM, Strain/Indicator: TA1538, Metabolic Activation: RAT, LIVER, S-9, AROCLOR 1254, Method: STANDARD PLATE active; positive | Test System: CHINESE HAMSTER OVARY, Strain/Indicator: CHO-K1-BH4 (HGPRT), Metabolic Activation: RAT, LIVER, S-9, AROCLOR, Method: SUSPENSION/PLATE active; positive | Test System: CHINESE HAMSTER V-79, Strain/Indicator: V-79/6-THIOGUANINE, Metabolic Activation: RAT, HEPATOCYTES, BUTYLATED HYDROXYANISOLE, Method: STANDARD PLATE active; positive | Test System: CHINESE HAMSTER V-79, Strain/Indicator: V-79/6-THIOGUANINE, Metabolic Activation: RAT, HEPATOCYTES, Method: STANDARD PLATE active; positive | Test System: CHINESE HAMSTER V-79, Strain/Indicator: V-79/6-THIOGUANINE, Metabolic Activation: RAT, LIVER, S-9, PHENOBARBITAL, Method: STANDARD PLATE active; positive | Test System: CHINESE HAMSTER V-79, Strain/Indicator: V-79/8-AZAGUANINE, Metabolic Activation: CELL-MEDIATED, Method: STANDARD PLATE active; positive | Test System: CHINESE HAMSTER V-79, Strain/Indicator: V-79/OUABAIN, Metabolic Activation: RAT, HEPATOCYTES, BUTYLATED HYDROXYANISOLE, Method: STANDARD PLATE active; positive | Test System: CHINESE HAMSTER V-79, Strain/Indicator: V-79/OUABAIN, Metabolic Activation: RAT, HEPATOCYTES, Method: STANDARD PLATE active; positive | Test System: MOUSE LYMPHOMA, Strain/Indicator: L5178Y (TK+/TK-), Metabolic Activation: RAT, LIVER, S-9, AROCLOR 1254, Method: SUSPENSION/PLATE active; positive | Test System: MOUSE SPLENIC LYMPHOCYTES, Strain/Indicator: C57BL/6 (TK+/-)/C57BL/6 (HPRT), Metabolic Activation: NONE, Method: IN VIVO/SUSPENSION/PLATE active; positive | Test System: UDS MONKEY HEPATOCYTES, Strain/Indicator: THY INCORP, Metabolic Activation: AROCLOR 1254, Method: AUTORADIOGRAPHY active; positive | Test System: UDS MONKEY HEPATOCYTES, Strain/Indicator: THY INCORP, Metabolic Activation: NONE, Method: AUTORADIOGRAPHY active; positive | Test System: UDS MOUSE EPIDERMIS IN VIVO/IN VITRO, Strain/Indicator: HOS:HR-1/THYMIDINE INCORPORATION, Metabolic Activation: NONE, Method: LIQUID SCINTILLATION active; positive | Test System: UDS RAT HEPATOCYTES, Strain/Indicator: BROMODEOXYURIDINE INCORP, Metabolic Activation: NONE, Method: FLOW CYTOMETRIC ANALYSIS active; positive | Test System: UDS RAT HEPATOCYTES, Strain/Indicator: THY INCORP, Metabolic Activation: NONE, Method: AUTORADIOGRAPHY active; positive | Test System: UDS RODENT HEPATOCYTES, Strain/Indicator: THY INCORP (NON-S-PHASE), Method: AUTORADIOGRAPHY active; positive | Test System: UDS RODENT PRIMARY CELLS, Strain/Indicator: THY INCORP (NON-S-PHASE), Metabolic Activation: NONE, Method: AUTORADIOGRAPHY active; positive
inactive: End Point: IN VIVO MICRONUCLEUS, Test System: MAMMARY GLAND CELLS, Species: RAT, Strain/Sex: SPRAGUE-DAWLEY/FEMALE, Route: INTRAGASTRIC inactive; negative | Test System: AMES SALMONELLA TYPHIMURIUM, Strain/Indicator: TA1535, Metabolic Activation: NONE, Method: SPIRAL ASSAY inactive; negative | Test System: AMES SALMONELLA TYPHIMURIUM, Strain/Indicator: TA1535, Metabolic Activation: NONE, Method: STANDARD PLATE inactive; negative | Test System: AMES SALMONELLA TYPHIMURIUM, Strain/Indicator: TA1535, Metabolic Activation: RAT, LIVER, S-9, AROCLOR 1254, Method: SPIRAL ASSAY inactive; negative | Test System: AMES SALMONELLA TYPHIMURIUM, Strain/Indicator: TA1535, Metabolic Activation: RAT, LIVER, S-9, AROCLOR 1254, Method: STANDARD PLATE inactive; negative | Test System: CHINESE HAMSTER V-79, Strain/Indicator: V-79/6-THIOGUANINE, Metabolic Activation: NONE, Method: STANDARD PLATE inactive; negative | Test System: CHINESE HAMSTER V-79, Strain/Indicator: V-79/OUABAIN, Metabolic Activation: NONE, Method: STANDARD PLATE inactive; negative | Test System: E. COLI, Strain/Indicator: WP2 UVRA, Metabolic Activation: HAMSTER, LIVER, S-9, AROCLOR 1254, Method: STANDARD PLATE inactive; negative | Test System: E. COLI, Strain/Indicator: WP2 UVRA, Metabolic Activation: HAMSTER, LIVER, S-9, Method: STANDARD PLATE inactive; negative | Test System: E. COLI, Strain/Indicator: WP2 UVRA, Metabolic Activation: MOUSE, LIVER, S-9, AROCLOR 1254, Method: STANDARD PLATE inactive; negative | Test System: E. COLI, Strain/Indicator: WP2 UVRA, Metabolic Activation: MOUSE, LIVER, S-9, Method: STANDARD PLATE inactive; negative | Test System: E. COLI, Strain/Indicator: WP2 UVRA, Metabolic Activation: NONE, Method: STANDARD PLATE inactive; negative | Test System: E. COLI, Strain/Indicator: WP2 UVRA, Metabolic Activation: RAT, LIVER, S-9, AROCLOR 1254, Method: STANDARD PLATE inactive; negative | Test System: E. COLI, Strain/Indicator: WP2 UVRA, Metabolic Activation: RAT, LIVER, S-9, Method: STANDARD PLATE inactive; negative | Test System: MOUSE LYMPHOMA, Strain/Indicator: L5178Y (TK+/TK-), Metabolic Activation: NONE, Method: SUSPENSION/PLATE inactive; negative
